From patent publication US6444696B1, “Pyrazole derivatives P38 MAP kinase inhibitors” (Syntex (U.S.A.) LLC, priority 1998, dated 2002) come the findings set out here.

One series concerns the target T1, p38 MAP kinase (Homo sapiens, UniProt Q16539).
T1 construct: made in house; host or cells: E. coli (co-expressed with SEK-1 and MEKK to obtain the phosphorylated form)
Kind of series: Inhibition of p-38 (MAP) kinase, in vitro assay (transfer of γ-33P from ATP to Myelin Basic Protein). The class given is biochemical. The following applies: phosphorylated recombinant p38 MAP kinase, MBP substrate, γ-33P-ATP, 30° C.; read-out: IC50, μM (p-38 inhibitory activity). The procedure:
The p-38 MAP kinase inhibitory activity of compounds of this invention in vitro was determined by measuring the transfer of the γ-phosphate from γ-^33P-ATP by p-38 kinase to Myelin Basic Protein (MBP), using the a minor modification of the method described in Ahn, N. G.; et al. J. Biol. Chem. Vol. 266(7), 4220-4227, (1991).
The phosphorylated form of the recombinant p38 MAP kinase was expressed with SEK-1 and MEKK in E. Coli and then purified by affinity chromatography using a Nickel column.
The phosphorylated p38 MAP kinase was diluted in kinase buffer (20 mM 3-(N-morpholino)propanesulfonic acid, pH 7.2, 25 mM β-glycerol phosphate, 5 mM ethylene glycol-bis(beta-aminoethyl ether)-N,N,N′,N′-tetraacetic acid, 1 mM sodium vanadate, 1 mM dithiothreitol, 40 mM magnesium chloride). Test compound dissolved in DMSO or only DMSO (control) was added and the samples were incubated for 10 min at 30° C. The kinase reaction was initiated by the addition of a substrate cocktail containing MBP and γ-^33P-ATP. After incubating for an additional 20 min at 30° C., the reaction was terminated by adding 0.75% phosphoric acid. The phosphorylated MBP was then separated from the residual γ-^33P-ATP using a phosphocellulose membrane (Millipore, Bedford, Mass.) and quantitated using a scintillation counter (Packard, Meriden, Conn.).
Compounds of the invention were active in this assay.

Series [1] has as its system TNF-α Production In THP 1 Cells. Kind of series: Inhibition of LPS-induced TNF-α production in THP-1 cells, in vitro assay (ELISA). The class given is cell-based. The following applies: Homo sapiens, LPS 0.5 μg/ml, 2 h, TNF-α by ELISA, read-out: IC50, μM (inhibition of TNF-α release). The procedure:
The ability of the compounds of this invention to inhibit the TNF-α release was determined using a minor modification of the methods described in described in Blifeld, C. et al. Transplantation, Vol. 51(2), 498-503, (1991).
THP-1 cells were suspended in culture medium [RPMI (Gibco-BRL, Gailthersburg, Md.) containing 15% fetal bovine serum, 0.02 mM 2-mercaptoethanol], at a concentration of 2.5×10^6 cells/ml and then plated in 96 well plate (0.2 ml aliquots in each well). Test compounds were dissolved in DMSO and then diluted with the culture medium such that the final DMSO concentration was […]. 20 μl aliquots of test solution or only medium with DMSO (control) were added to each well. The cells were incubated for 30 min., at 37° C. LPS (Sigma, St. Louis, Mo.) was added to the wells at a final concentration of 0.5 μg/ml, and cells were incubated for an additional 2 h. At the end of the incubation period, culture supernatants were collected and the amount of TNF-α present was determined using an ELISA assay as described below.
The amount of human TNF-α present was determined by a specific trapping ELISA assay using two anti-TNF-α antibodies (2TNF-H22 and 2TNF-H34) described in Reimund, J. M., et al. GUT. Vol. 39(5), 684-689 (1996).
Polystyrene 96-well plates were coated with 50 μl per well of antibody 2TNF-H22 in PBS (10 μg/ml) and incubated in a humidified chamber at 4° C. overnight. The plates were washed with PBS and then blocked with 5% nonfat-dry milk in PBS for 1 hour at room temperature and washed with 0.1% BSA (bovine serum albumin) in PBS.
TNF standards were prepared from a stock solution of human recombinant TNF-α (R&D Systems, Minneapolis, Minn.). The concentration of the standards in the assay began at 10 ng/ml followed by 6 half log serial dilution's.
25 μl aliquots of the above culture supernatants or TNF standards or only medium (control) were mixed with 25 μl aliquots of biotinylated monoclonal antibody 2TNF-H34 (2 μg/ml in PBS containing 0.1% BSA) and then added to each well. The samples were incubated for 2 h at room temperature with gentle shaking and then washed 3 times with 0.1% BSA in PBS. 50 μl of peroxidase-streptavidin (Zymed, S. San Francisco, Calif.) solution containing 0.416 μg/ml of peroxidase-streptavidin and 0.1% BSA in PBS was added to each well. The samples were incubated for an additional 1 h at room temperature and then washed 4 times with 0.1% BSA in PBS. 50 μl of O-phenylenediamine solution (1 μg/ml O-phenylene-diamine and 0.03% hydrogen peroxide in 0.2M citrate buffer pH 4.5) was added to each well and the samples were incubated in the dark for 30 min., at room temperature. Optical density of the sample and the reference were read at 450 nm and 650 nm, respectively. TNF-α levels were determined from a graph relating the optical density at 450 nm to the concentration used.
The IC50 value was defined as the concentration of the test compound corresponding to half-maximal reduction in 450 nm absorbance. Compounds of the invention were active in this assay. The activity of selected compounds is shown below.
(In an ELISA, binding on a coated surface is turned into a signal by an enzyme label.)

The next series deals with TNF-α Production In Rats. Kind of series: Inhibition of LPS-induced TNF-α production in rats, in vivo assay. On the set-up: species or system rat. The following applies: dosed orally at 30 mg, LPS 50 μg/kg intraperitoneally after 30 min, serum TNF-α 1.5 h later. The procedure: The ability of the compounds of this invention to inhibit the TNF-α release, in vivo, was determined using a minor modification of the methods described in described in Zanetti, G.; Heumann, D., et. al. “Cytokine production after intravenous or peritoneal Gram-negative bacterial challenge in mice,” J. Immunol., 148, 1890, (1992) and Sekut, L., Menius, J. A., et. al., “Evaluation of the significance of elevated levels of systemic and localized tumor necrosis factor in different animal models of inflammation,” J. Lab. Clin. Med., 124, 813, (1994).
Female Sprague-Dawley rats weighing 110-140 grams (Charles River, Hollister, Calif.) were acclimated for one week. Groups containing 8 […] each were dosed orally either with the test compounds dissolved in an aqueous vehicle containing 0.9% sodium chloride, 0.5% sodium carboxymethyl-cellulose, 0.4% polysorbate 80, 0.9% benzyl alcohol (CMC vehicle) or only vehicle (control group). After 30 min., the mice were injected intraperitoneally with 50 μg/kg of LPS (Sigma, St. Louis, Mo.). After 1.5 h, the mice were sacrificed by CO2 inhalation and blood was harvested by cardiocentesis. Blood was clarified by centrifugation at 15,600×g for 5 min., and sera were transferred to clean tubes and frozen at −20° C. until analyzed for TNF-α by ELISA assay (Biosource International, Camarillo, Calif.) following the manufacturer's protocol. […]

T1 sequence (Q16539 whole entry): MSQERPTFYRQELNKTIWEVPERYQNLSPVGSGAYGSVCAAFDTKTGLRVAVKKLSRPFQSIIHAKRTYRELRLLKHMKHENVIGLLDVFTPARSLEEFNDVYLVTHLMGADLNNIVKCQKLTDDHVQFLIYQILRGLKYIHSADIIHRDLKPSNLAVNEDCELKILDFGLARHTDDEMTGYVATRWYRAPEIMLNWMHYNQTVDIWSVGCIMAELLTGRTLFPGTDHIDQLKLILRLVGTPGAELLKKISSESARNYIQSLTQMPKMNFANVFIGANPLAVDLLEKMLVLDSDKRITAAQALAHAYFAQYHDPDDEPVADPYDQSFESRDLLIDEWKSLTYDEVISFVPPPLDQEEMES

`Nc1c(C(=O)c2cccc(N3CCC(Cc4ccccc4)CC3)c2)cnn1-c1ccc(F)cc1` [compound 33] returned a melting point of 156.2 to 160.9 °C. The 50% inhibitory concentration (IC50) on p38 MAP kinase worked out at 1.12 µM. The IC50 in series [1] was 0.14 µM.

Consider `Nc1c(C(=O)c2cccc(OCCCN3CCCCC3)c2)cnn1-c1ccc(F)cc1` [compound 21], for which the IC50 came out at 2.18 µM on p38 MAP kinase and 0.61 µM in series [1].

Take `Nc1cccc(C(=O)c2cnn(-c3ccc(F)cc3)c2N)c1` [compound 43, 5-amino-4-(3-aminobenzoyl)-1-(4-fluorophenyl)pyrazole]: the melting point was in the range of 165.2 to 165.8 °C. Moreover, the concentration for half-maximal inhibition (IC50) on p38 MAP kinase worked out at 6.52 µM. For the same compound, the IC50 in series [1] turned out to be 0.17 µM.

Take `Nc1c(C(=O)c2cccc(C=CS(N)(=O)=O)c2)cnn1-c1ccc(F)cc1` [compound 10, 5-amino-4-[3-(2-aminosulfonylethenyl)benzoyl]-1-(4-fluorophenyl)pyrazole]: the 50% inhibitory concentration (IC50) in series [1] was 1.62 µM.

Take `N#CCCCOc1cccc(C(=O)c2cnn(-c3ccc(F)cc3)c2N)c1` [compound 27]: the IC50 turned out to be 2.72 µM on p38 MAP kinase and 0.83 µM in series [1].

For `Nc1c(C(=O)c2ccc(CCCO)cc2)cnn1-c1ccccc1` [compound 1], the melting point lay within 148 to 152.5 °C. Further, the IC50 on p38 MAP kinase amounted to 1.81 µM. Also, in series [1], the half-inhibitory concentration (IC50) was 1.77 µM.

Regarding `Nc1c(C(=O)c2ccc(C=CCN3CCOCC3)cc2)cnn1-c1ccc(F)cc1` [compound 2], the melting point was in the range of 166.7 to 168.2 °C. Moreover, the half-maximal inhibitory concentration (IC50) on p38 MAP kinase amounted to 3.29 µM. For the same compound, the IC50 in series [1] was found to be 6.3 µM.

As for `CN1CCN(C(=O)COc2cccc(C(=O)c3cnn(-c4ccc(F)cc4)c3N)c2)CC1` [compound 38], the IC50 at p38 MAP kinase was found to be 6.31 µM; in series [1] it was 0.69 µM.

With `Nc1c(C(=O)c2cccc(OCCN3CCOCC3)c2)cnn1-c1ccc(F)cc1` [compound 13, 5-amino-1-(4-fluorophenyl)-4-[3-(2-morpholin-4-ylethoxy)benzoyl]pyrazole], the IC50 in series [1] stood at 0.77 µM.

`Nc1c(C(=O)c2cccc(C=CCN3CCOCC3)c2)cnn1-c1ccc(F)cc1` [compound 4] registered a melting point of 161.6 to 162.8 °C. In addition, the IC50 at p38 MAP kinase was determined as 6.18 µM. The concentration for half-maximal inhibition (IC50) in series [1] was 1.26 µM.

Take `CN1CCN(CC#Cc2cccc(C(=O)c3cnn(-c4ccc(F)cc4)c3N)c2)CC1.Cl.Cl` [compound 8, 5-amino-1-(4-fluorophenyl)-4-{3-[3-(4-methylpiperazin-1-yl)prop-1-ynyl]benzoyl}pyrazole.2HCl]: in the series with TNF-α Production In Rats, the “% Inhibition (TNF-α content in test group relative to vehicle treated group)” value amounted to 86%.

One may read the IC50 as the concentration that inhibits the measured activity by half. In general, melting point refers to the temperature of the solid-liquid transition.
